What follows are compounds tested against T1, OX2R (Homo sapiens, UniProt O43614) (assay: radioligand binding assay, OX2 receptor). Settings: membranes prepared from CHO cells expressing the OX2 receptor.
T1 construct: expressed in transfected cells; host or cells: CHO cells (membranes)
T1 sequence (O43614 1-444): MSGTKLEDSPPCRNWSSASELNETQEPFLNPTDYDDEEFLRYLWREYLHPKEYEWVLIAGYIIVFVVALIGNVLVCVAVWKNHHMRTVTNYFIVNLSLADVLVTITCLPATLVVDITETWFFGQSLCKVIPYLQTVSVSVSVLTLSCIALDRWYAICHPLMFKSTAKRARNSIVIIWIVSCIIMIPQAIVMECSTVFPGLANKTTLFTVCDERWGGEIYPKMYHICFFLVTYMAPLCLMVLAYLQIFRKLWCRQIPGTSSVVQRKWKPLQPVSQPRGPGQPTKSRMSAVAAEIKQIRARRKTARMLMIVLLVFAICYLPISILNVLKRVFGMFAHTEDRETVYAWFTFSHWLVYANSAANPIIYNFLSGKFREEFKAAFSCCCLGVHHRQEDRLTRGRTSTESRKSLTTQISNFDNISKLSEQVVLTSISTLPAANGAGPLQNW
Method: In a typical experiment the OX1 and OX2 receptor antagonistic activity of the compounds of the present invention was determined in accordance with the following experimental method. For intracellular calcium measurements, Chinese hamster ovary (CHO) cells expressing the rat orexin-1 receptor or the human orexin-2 receptor, are grown in Iscove's modified DMEM containing 2 mM L-glutamine, […], 1% hypoxanthine-thymidine supplement, 100 U/ml penicillin, 100 ug/ml streptomycin and 10% heat-inactivated fetal calf serum (FCS). The cells are seeded at 20,000 cells/well into Becton-Dickinson black 384-well clear bottom sterile plates coated with poly-D-lysine. All reagents were from GIBCO-Invitrogen Corp. The seeded plates are incubated overnight at 37° C. and 5% CO2. Ala-6,12 human orexin-A as the agonist is prepared as a 1 mM stock solution in 1% bovine serum albumin (BSA) and diluted in assay buffer (HBSS containing 20 mM HEPES, 0.1% BSA and 2.5 mM probenecid, pH7.4) for use in the assay at a final concentration of 70 pM. Test compounds are prepared as 10 mM stock solution in DMSO, then diluted in 384-well plates, first in DMSO, then assay buffer. On the day of the assay, cells are washed 3 times with 100 ul assay buffer and then incubated for 60 min (37° C., 5% CO2) in 60 ul assay buffer containing 1 uM Fluo-4AM ester, 0.02% pluronic acid, and 1% BSA. The dye loading solution is then aspirated and cells are washed 3 times with 100 ul assay buffer. 30 ul of that same buffer is left in each well. Within the Fluorescent Imaging Plate Reader (FLIPR, Molecular Devices), test compounds are added to the plate in a volume of 25 ul, incubated for 5 min and finally 25 ul of agonist is added. Fluorescence is measured for each well at 1 second intervals for 5 minutes and the height of each fluorescence peak is compared to the height of the fluorescence peak induced by 70 pM Ala-6,12 orexin-A with buffer in place of antagonist. For each antagonist, IC50 value (the concentration of compound needed to inhibit 50% of the agonist response) is determined. Alternatively, compound potency can be assessed by a radioligand binding assay (described in Bergman et. al. Bioorg. Med. Chem. Lett. 2008, 18, 1425-1430) in which the inhibition constant (Ki) is determined in membranes prepared from CHO cells expressing either the OX1 or OX2 receptor. The intrinsic orexin receptor antagonist activity of a compound which may be used in the present invention may be determined by these assays.

| Compound | Ki [nM] |
| --- | --- |
| COc1cc(CNC(=O)c2cc(-c3cc(C)cc(C)c3)cnc2-c2cnn(C)c2)cnc1OC [1-13, N-[(5,6-dimethoxypyridin-3-yl)methyl]-5-(3,5-dimethylphenyl)-2-(1-methyl-1H-pyrazol-4-yl)nicotinamide] | 4.8 |
| COc1ccc(CNC(=O)c2cc(-c3cncc(Cl)c3)cnc2-c2ccccc2)nc1OC [3-15, 5′-chloro-N-[(5,6-dimethoxypyridin-2-yl)methyl]-6-phenyl-3,3′-bipyridine-5-carboxamide] | 0.45 |
| COc1ccc(CNC(=O)c2cc(-c3cc(C)cc(Cl)c3)cnc2N2CCCC2)cc1OC [4-5, 5-(3-chloro-5-methylphenyl)-N-(3,4-dimethoxybenzyl)-2-pyrrolidin-1-ylnicotinamide] | 0.45 |
| COc1ccc(CNC(=O)c2cc(-c3cncc(C)c3)cnc2N2CCOCC2)nc1OC [4-13, N-[(5,6-dimethoxypyridin-2-yl)methyl]-5′-methyl-6-morpholin-4-yl-3,3′-bipyridine-5-carboxamide] | 1.1 |
| COc1ccc(CNC(=O)c2cc(-c3cncc(C)c3)cnc2-n2ccc(C)n2)cc1Cl [5-11, N-(3-chloro-4-methoxybenzyl)-5′-methyl-6-(3-methyl-1H-pyrazol-1-yl)-3,3′-bipyridine-5-carboxamide] | 0.95 |
| COc1ccc(CNC(=O)c2cc(-c3cncc(C)c3)cnc2C2CCCC2)cc1OC [6-5, 6-cyclopentyl-N-(3,4-dimethoxybenzyl)-5-methyl-3,3′-bipyridine-5-carboxamide] | 2.3 |

Compounds with a lower Ki, results first:

| Ki [nM] | Compound |
| --- | --- |
| 0.15 | 5-(3,5-chloromethylphenyl)-N-[(1,4-dimethyl-1,2,3,4-tetrahydroquinoxalin-6-yl)methyl]-2-(1-methyl-1H-pyrazol-4-yl)nicotinamide [2-14] |
| 0.07 | Cc1[nH]c2cc(CNC(=O)c3cc(-c4cc(Cl)cc(Cl)c4)cnc3-c3cnn(C)c3)ccc2c1C [1-14, 5-(3,5-dichlorophenyl)-N-[(2,3-dimethyl-1H-indol-6-yl)methyl]-2-(1-methyl-1H-pyrazol-4-yl)nicotinamide] |
| 0.32 | COc1ccc(CNC(=O)c2cc(-c3cncc(C)c3)cnc2-c2cccc(F)c2)nc1OC [3-7, N-[(5,6-dimethoxypyridin-2-yl)methyl]-6-(3-fluorophenyl)-5′-methyl-3,3′-bipyridine-5-carboxamide] |

Reference: patent US8003797B2, “Pyridine carboxamide orexin receptor antagonists” (Merck Sharp & Dohme Corp., priority 2007, dated 2011)
